# Data reported in ChEMBL document CHEMBL1145661, “Studies on Aristolochia, I. Conversion of Aristolochic Acid-I to Aristolic Acid-One-Step Removal of a Nitro Group” (1983).
# Tests used:
# Oryctolagus cuniculus [1] = test: Regulation of fertility in rabbit assessed as fetal loss 90 mg/kg; format: functional
# Oryctolagus cuniculus [2] = test: Regulation of fertility in rabbit assessed as fetal loss 60 mg/kg; format: functional
smiles,measurement,setting,value
COc1cccc2c1ccc1c(C(=O)O)cc3c(c12)OCO3 [ARISTOLIC ACID],Activity,Oryctolagus cuniculus [1],80%
same,Activity,Oryctolagus cuniculus [2],80%
